Results from patent publication US20240076297A1, “ADENOSINE A2A AND A2B RECEPTOR DUAL ANTAGONISTS FOR IMMUNO-ONCOLOGY” (Merck Sharp & Dohme LLC, priority 2020, published 2024).

Target: human A2A adenosine receptor (Homo sapiens (Human), UniProt P29274)
Assay: A2A binding affinity using radioligand binding, Method (A)
Conditions: Method (A): filtration radioligand binding, [3H] SCH58261, membranes expressing human A2A
From the text: (§1) Method (A) describes the procedure used to measure A2A binding affinity using radioligand binding. Method (B) describes the procedure used to measure A2A binding affinity using SPA technology. The method used to measure A2B binding affinity is also described below. The method used to determine the A2A IC50 value reported for each compound in the table is indicated next to the reported value. The A2B IC50 value measured using the A2B binding affinity assay is shown in the table next to the compound under the corresponding A2A value.
The A2A receptor affinity binding assay measured the amount of binding of a tritiated ligand with high affinity for the A2A adenosine receptor to membranes made from HEK293 or CHO cells recombinantly expressing the human A2A adenosine receptor, in the presence of varying concentrations of a compound of the invention. The data were generated using either filtration binding or a homogenous scintillation proximity assay (SPA).
Method (A): Measurement of A2A Binding Affinity Using Radioligand Binding
148 μL (5 μg/mL) membranes (Perkin Elmer, Cat. No. RBHA2aM400UA) and 2 μL compounds of the invention to be tested (test compound) were transferred to individual wells of a 96-well polypropylene assay plate and incubated for 15 to 30 min at room temperature. [^3H] SCH58261 ((7-(2-phenylethyl)-5-amino-2-(2-furyl)-pyrazolo-[4,3-e]-1,2,4-triazolo[1,5-c]pyrimidine)) was diluted in assay buffer (50 mM Tris pH 7.4, 10 mM MgCl2, 0.005% Tween20) to a concentration of 4 nM and 50 μL transferred to each well of the assay plate. To define total and non-specific binding, wells containing 1% DMSO and 1 μM ZM241385 (Tocris Bioscience, Cat. No. 1036) respectively, were also included. The assay plate was incubated at room temperature for 60 min with agitation. Using a FilterMate Harvester® (Perkin Elmer), the contents of the assay plate were filtered through a UniFilter-96® PEI coated plate (Perkin Elmer Cat. No. 6005274 or 6005277). Filtering was achieved by aspirating the contents of the assay plate for 5 sec, then washing and aspirating the contents three times with ice-cooled wash buffer (50 mM Tris-HCl pH 7.4, 150 mM NaCl) and allowing the vacuum manifold to dry the plate for 30 sec. The filter plate was incubated for at least 1 h at 55° C. and allowed to dry. The bottom of the filter plate was sealed with backing tape. 40 μL Ultima Gold™ (Perkin Elmer, Cat. No. 6013329) was added to each well of the filter plate and the top of the plate was sealed with TopSeal-A PLUS® clear plate seal (Perkin Elmer, Cat. No. 6050185). The plate was incubated for at least 20 min, and then the amount of radioactivity remaining in each well was determined using a TopCount® (Perkin Elmer) scintillation counter. After normalization to total and non-specific binding, the percent effect at each compound concentration was calculated. The plot of percent effect versus the log of compound concentration was analyzed electronically using a 4-parameter logistic fit based on the Levenberg-Marquardt algorithm to generate IC50 values.

Chain of human A2A adenosine receptor (P29274 whole entry): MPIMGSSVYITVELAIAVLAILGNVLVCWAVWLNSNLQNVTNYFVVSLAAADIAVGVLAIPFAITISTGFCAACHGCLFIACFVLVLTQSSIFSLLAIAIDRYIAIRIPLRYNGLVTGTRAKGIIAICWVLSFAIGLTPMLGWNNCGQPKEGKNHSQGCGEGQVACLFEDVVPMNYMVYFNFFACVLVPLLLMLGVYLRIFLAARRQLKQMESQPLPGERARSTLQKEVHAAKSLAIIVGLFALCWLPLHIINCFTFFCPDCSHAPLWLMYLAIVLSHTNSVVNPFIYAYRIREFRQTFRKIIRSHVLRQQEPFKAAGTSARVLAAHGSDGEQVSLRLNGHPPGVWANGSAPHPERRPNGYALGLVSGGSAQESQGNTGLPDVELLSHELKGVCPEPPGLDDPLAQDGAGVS

| Compound | IC50 [nM] |
| --- | --- |
| COc1cc(F)cc2c1nc(N)n1nc(CCC3CCn4c(cnc4C4(C(F)(F)F)CC4)C3)nc21 (single isomer, unassigned) [Example 12.3B, (R or S)-9-fluoro-7-methoxy-2-(2-(3-(1-(trifluoromethyl)cyclopropyl)-5,6,7,8-tetrahydroimidazo[1,5-a]pyridin-7-yl)ethyl)-[1,2,4]triazolo[1,5-c]quinazolin-5-amine] | 6.7 |
| COc1ccc2c(c1)nc(N)n1nc(CCS(=O)(=O)C3CC3)nc21 [Example 13.6, 2-(2-(cyclopropylsulfonyl)ethyl)-8-methoxy-[1,2,4]triazolo[1,5-c]quinazolin-5-amine] | 8.2 |
| COc1cc(F)cc2c1nc(N)n1nc(CCC3CCn4c(cnc4C4(C(F)(F)F)CC4)C3)nc21 (single isomer, unassigned) [Example 12.3A, (S or R)-9-fluoro-7-methoxy-2-(2-(3-(1-(trifluoromethyl)cyclopropyl)-5,6,7,8-tetrahydroimidazo[1,5-a]pyridin-7-yl)ethyl)-[1,2,4]triazolo[1,5-c]quinazolin-5-amine] | 5.7 |
| COc1cccc2c1nc(N)n1nc(CCC3CCc4c(cnn4C(C)C)C3)nc21 (single isomer, unassigned) [Example 7.8A, (S or R)-2-(2-(1-isopropyl-4,5,6,7-tetrahydro-1H-indazol-5-yl)-ethyl)-7-methoxy-[1,2,4]triazolo[1,5-c]quinazolin-5-amine] | 2.1 |
| Nc1nc2c(F)cc(F)cc2c2nc(CCCS(=O)(=O)C3CC3)nn12 [Example 13.20, 2-(3-(cyclopropylsulfonyl)propyl)-7,9-difluoro-[1,2,4]triazolo[1,5-c]quinazolin-5-amine] | 34.2 |
| COc1cc(F)cc2c1nc(N)n1nc(CCC3CCc4c(cnn4C(C)C)C3)nc21 (single isomer, unassigned) [Example 7.7A, (S or R)-9-fluoro-2-(2-(1-isopropyl-4,5,6,7-tetrahydro-1H-indazol-5-yl)ethyl)-7-methoxy-[1,2,4]triazolo[1,5-c]quinazolin-5-amine] | 5.5 |
| COc1ccc(C2=COCCC2)c2c1nc(N)n1nc(CO)nc21 [Example 15.4, (5-amino-10-(3,4-dihydro-2H-pyran-5-yl)-7-methoxy-[1,2,4]triazolo[1,5-c]quinazolin-2-yl)methanol] | 2.7 |
| CCOC(=O)CCCn1cc(Cc2nc3c4cc(F)cc(OC)c4nc(N)n3n2)cn1 [Example 16.3, ethyl 4-(4-((5-amino-9-fluoro-7-methoxy-[1,2,4]triazolo[1,5-c]quinazolin-2-yl)methyl)-1H-pyrazol-1-yl)butanoate] | 14.9 |
| COc1cc(F)cc2c1nc(N)n1nc(CCC3CCc4c(nnn4C4CC(F)(F)C4)C3)nc21 (single isomer, unassigned) [Example 7.6B, (R or S)-2-(2-(1-(3,3-difluorocyclobutyl)-4,5,6,7-tetrahydro-1H-benzo[d][1,2,3]triazol-5-yl)ethyl)-9-fluoro-7-methoxy-[1,2,4]-triazolo[1,5-c]quinazolin-5-amine] | 4.2 |
| CS(=O)(=O)CCCc1nc2c3cc(F)cc(F)c3nc(N)n2n1 [Example 13.19, 7,9-difluoro-2-(3-(methylsulfonyl)propyl)-[1,2,4]triazolo[1,5-c]quinazolin-5-amine] | 21.8 |
| COc1cccc2c1nc(N)n1nc(COC3CCc4c(nnn4C4CC(F)(F)C4)C3)nc21 (single isomer, unassigned) [Example 2.2A, (S or R)-2-(((1-(3,3-difluorocyclobutyl)-4,5,6,7-tetrahydro-1H-benzo[d][1,2,3]triazol-5-yl)oxy)methyl)-7-methoxy-[1,2,4]triazolo[1,5-c]quinazolin-5-amine] | 3.4 |

More lines, now with the values ahead:

| IC50 [nM] | Compound |
| --- | --- |
| 6.7 | COc1cccc2c1nc(N)n1nc(C[C@H](C)O)nc21 [Example 18.3, (S)-1-(5-amino-7-methoxy-[1,2,4]triazolo[1,5-c]quinazolin-2-yl)propan-2-ol] |
| 1.7 | COc1cccc2c1nc(N)n1nc(CCOc3ccc(C(O)(C(F)(F)F)C(F)(F)F)cc3)nc21 [Example 9.1, 2-(4-(2-(5-amino-7-methoxy-[1,2,4]triazolo[1,5-c]quinazolin-2-yl)ethoxy)phenyl)-1,1,1,3,3,3-hexafluoropropan-2-ol] |
| 0.3 | COc1cccc2c1nc(N)n1nc(CC3CC3c3ccc(C(C)(C)O)cc3)nc21 (single isomer, unassigned) [Example 8.6B, 2-(4-((1R,2S or 1S,2S)-2-((5-amino-7-methoxy-[1,2,4]triazolo-[1,5-c]quinazolin-2-yl)methyl)cyclopropyl)phenyl)propan-2-ol] |
| 10.9 | COc1cccc2c1nc(N)n1nc(CC(C)(CO)CO)nc21 [Example 3.2, 2-((5-amino-7-methoxy-[1,2,4]triazolo[1,5-c]quinazolin-2-yl)methyl)-2-methylpropane-1,3-diol] |
| 10.2 | COc1cc(F)cc2c1nc(N)n1nc(CC3CC3c3ccc(C(C)(C)N)cc3)nc21 (single isomer, unassigned) [Example 8.4A, 2-(((1S, 2R or 1R,2S)-2-(4-(2-aminopropan-2-yl)phenyl)-cyclopropyl)methyl)-9-fluoro-7-methoxy-[1,2,4]triazolo-[1,5-c]quinazolin-5-amine] |
| 25.4 | CC(C)(N)c1ccc([C@H]2C[C@@H]2Cc2nc3c4cc(F)cc(F)c4nc(N)n3n2)cc1 [Example 8.3B, 2-(((1R,2S)-2-(4-(2-aminopropan-2-yl)phenyl)cyclopropyl)methyl)-7,9-difluoro-[1,2,4]triazolo[1,5-c]quinazolin-5-amine] |
| 1.4 | CN=S(=O)(CCc1nc2c3cccc(OC)c3nc(N)n2n1)C1CC1 (single isomer, unassigned) [Example 10.3A, (S or R)-(2-(5-amino-7-methoxy-[1,2,4]triazolo[1,5-c]quinazolin-2-yl)ethyl)(cyclopropyl)(methylimino)-l6-sulfanone] |
| 4.7 | COc1cccc2c1nc(N)n1nc(CC3CC3c3ccc(C(C)(C)N)cc3)nc21 (single isomer, unassigned) [Example 8.5A, 2-(((1S,2R or 1R,2S)-2-(4-(2-aminopropan-2-yl)phenyl)-cyclopropyl)methyl)-7-methoxy-[1,2,4]triazolo-[1,5-c]quinazolin-5-amine] |
| 3.7 | CN=S(=O)(CCc1nc2c3cccc(OC)c3nc(N)n2n1)C1CC1 (single isomer, unassigned) [Example 10.3B, (R or S)-(2-(5-amino-7-methoxy-[1,2,4]triazolo[1,5-c]quinazolin-2-yl)ethyl)(cyclopropyl)(methylimino)-λ^6-sulfanone] |

Target: human A2B adenosine receptor (Homo sapiens (Human), UniProt P29275)
Sequence (P29275 whole entry): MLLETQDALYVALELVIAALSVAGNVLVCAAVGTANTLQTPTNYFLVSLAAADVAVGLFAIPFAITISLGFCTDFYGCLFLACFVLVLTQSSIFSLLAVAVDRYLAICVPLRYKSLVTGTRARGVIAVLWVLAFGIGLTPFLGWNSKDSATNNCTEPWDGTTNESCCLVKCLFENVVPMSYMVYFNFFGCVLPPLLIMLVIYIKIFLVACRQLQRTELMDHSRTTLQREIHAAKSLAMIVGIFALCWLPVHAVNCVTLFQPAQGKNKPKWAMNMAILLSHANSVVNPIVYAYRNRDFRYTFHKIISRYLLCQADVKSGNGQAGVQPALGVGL
Assay: A2B binding affinity, radioligand filtration binding assay
Conditions: value given with marker (B); HEK293 membranes expressing human A2B, tritiated proprietary antagonist
From the text: as §1
Measurement of A2B Binding Affinity
The reported affinity of the compounds of the invention for the human A2B adenosine receptor was determined experimentally using a radioligand filtration binding assay. This assay measures the amount of binding of a tritiated proprietary A2B receptor antagonist, in the presence and absence of a compound of the invention, to membranes made from HEK293 cells recombinantly expressing the human A2B adenosine receptor (Perkin Elmer, Cat. No. ES-013-C).
148 μL (135 μg/mL) membranes and 2 μL test compounds were transferred to individual wells of a 96-well polypropylene assay plate and incubated for 15 to 30 min at room temperature with agitation. Tritiated radioligand was diluted to a concentration of 14 nM in assay buffer (phosphate buffered saline without Magnesium and Calcium, pH 7.4; GE Healthcare Life Sciences, Cat. No. SH30256.01) and then 50 μL of the solution were transferred to each well of the assay plate. To define total and non-specific binding, wells containing 1% DMSO and 20 μM N-ethylcarboxamidoadenosine (Tocris Bioscience, Cat. No. 1691) respectively, were also included. The wells of the assay plate were incubated at room temperature for 60 min with agitation, then filtered using a FilterMate Harvester® (Perkin Elmer) or similar equipment through a UniFilter-96@ PEI coated plate (Perkin Elmer Cat. No. 6005274 or 6005277). Filtering was achieved by aspirating the contents of the assay plate for 5 sec, then washing and aspirating the contents three times with ice-cooled wash buffer (assay buffer supplemented with 0.0025% Brij58) and allowing the vacuum manifold to dry the plate for 30 sec. The filter plate was incubated for at least 1 h at 55° C. and allowed to dry. The bottom of the filter plate was then sealed with backing tape. 40 μL Ultima Gold™ (Perkin Elmer, Cat. No. 6013329) was added to each well of the filter plate and the top of the plate was sealed with TopSeal-A PLUS® clear plate seal (Perkin Elmer, Cat. No. 6050185). The plates were then incubated for at least 20 min, and then the amount of radioactivity remaining in each well was determined using a TopCount® (Perkin Elmer) scintillation counter. After normalization to total and non-specific binding, the percent effect at each compound concentration was calculated. The plot of percent effect versus the log of compound concentration was analyzed electronically using a 4-parameter logistic fit based on the Levenberg-Marquardt algorithm to generate IC50 values.

| IC50 [nM] | Compound |
| --- | --- |
| 214 | COc1cccc2c1nc(N)n1nc(C[C@H](C)O)nc21 [Example 18.3, (S)-1-(5-amino-7-methoxy-[1,2,4]triazolo[1,5-c]quinazolin-2-yl)propan-2-ol] |
